Measured values as given in patent US20060069132A1, “Azolecarboxamide herbicides” (priority 2004, published 2006).

Assays:
rice = assay: Test C flooded paddy test; format: in vivo, Oryza sativa
Summary of the method: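 Postemergence sprays applied to plants 2 to 18 cm tall (1- to 4-leaf stage); paddy species grown to 2-leaf stage under flooding. After 12 to 14 days in greenhouse, visual rating versus untreated controls on 0–100 scale (0 no effect, 100 complete control).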

giant foxtail = assay: Test A pre-/postemergence herbicide test; format: in vivo, Setaria faberi
Summary of the method: (§1)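 Sandy loam soil given preemergence directed spray; plants at 2 to 10 cm, one- to two-leaf stage, sprayed to runoff postemergence, compounds in non-phytotoxic solvent with surfactant. Injury rated visually versus untreated controls after about ten greenhouse days, 0 (no effect) to 100 (complete control); dash means not tested.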

morningglory = assay: Test A pre-/postemergence herbicide test; format: in vivo, Ipomoea spp.
Summary of the method: as §1

corn = assay: Test C pre-/postemergence herbicide test; format: in vivo, Zea mays; conditions: for Corn plant response rating: 500 g ai/ha
Summary of the method: (§2)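 Preemergence: seeds planted and treated with compound in non-phytotoxic solvent with surfactant; postemergence: plants at 2 to 18 cm (1- to 4-leaf stage) sprayed likewise. Kept in greenhouse 12 to 14 days, then visually rated against controls, 0 (no effect) to 100 (complete control).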

Surinam grass = assay: Test C pre-/postemergence herbicide test; format: in vivo, Urochloa decumbens; conditions: for Surinam Grass plant response rating: 500 g ai/ha
Summary of the method: as §2

pigweed = assay: Test C pre-/postemergence herbicide test; format: in vivo, Amaranthus retroflexus; conditions: for Pigweed plant response rating: 500 g ai/ha
Summary of the method: as §2

ducksalad = assay: Test C flooded paddy test; format: in vivo, Heteranthera limosa
velvetleaf [1] = assay: Test C pre-/postemergence herbicide test; format: in vivo, Abutilon theophrasti; conditions: for Velvetleaf plant response rating: 500 g ai/ha
Summary of the method: as §2

lambsquarters = assay: Test C pre-/postemergence herbicide test; format: in vivo, Chenopodium album; conditions: for Lambsquarters plant response rating: 500 g ai/ha
Summary of the method: as §2

kochia = assay: Test C pre-/postemergence herbicide test; format: in vivo, Kochia scoparia; conditions: for Kochia plant response rating: 500 g ai/ha
Summary of the method: as §2

velvetleaf [2] = assay: Test A pre-/postemergence herbicide test; format: in vivo, Abutilon theophrasti
Summary of the method: as §1

[3] = 62 g ai/ha, scale 0 to 100 (0 no effect, 100 complete control)
[4] = 125 g ai/ha, scale of 0 to 100, 0 is no effect, 100 is complete control
[5] = 250 g ai/ha, scale of 0 to 100, 0 is no effect, 100 is complete control
[6] = 500 g ai/ha, visual rating after 12 to 14 days, scale 0 to 100 (0 no effect, 100 complete control)
[7] = Postemergence, 500 g ai/ha, 0 to 100 scale, 0 no effect, 100 complete control
[8] = Postemergence, 2000 g ai/ha, 0 to 100 scale, 0 no effect, 100 complete control
[9] = Preemergence, 500 g ai/ha, visual rating, 0 to 100 scale (0 no effect, 100 complete control)
[10] = Preemergence, 2000 g ai/ha, 0 to 100 scale, 0 no effect, 100 complete control
[11] = 125 g ai/ha, scale 0 (no effect) to 100 (complete control), visual, 12 to 14 days, preemergence
[12] = 250 g ai/ha, scale 0 to 100 (0 no effect, 100 complete control), visual, 12 to 14 days, preemergence
[13] = Preemergence, scale 0 to 100, 0 no effect, 100 complete control
[14] = Preemergence, 2000 g ai/ha, visual rating, 0 to 100 scale (0 no effect, 100 complete control)
[15] = 125 g ai/ha, scale 0 to 100 (0 no effect, 100 complete control)
[16] = Postemergence, 250 g ai/ha, scale 0 to 100, 0 no effect, 100 complete control
[17] = postemergence, 125 g ai/ha, scale 0 to 100
[18] = postemergence, 62 g ai/ha, scale 0 to 100

CCN1CCc2c(NC(=O)c3cc(C(C)(C)C)nn3CC)cccc2C1=O [Compound 63]
Rice plant response rating (rice; [3]): 0 | Rice plant response rating (rice; [4]): 0 | Rice plant response rating (rice; [5]): 15 | Plant response rating, Rice (rice; [6]): 50 | Plant response rating, Foxtail, Giant (giant foxtail; [7]): 50 | Plant response rating, Foxtail, Giant (giant foxtail; [8]): 80 | Foxtail, Giant plant response rating (giant foxtail; [9]): 95 | Foxtail, Giant plant response rating (giant foxtail; [10]): 100 | Plant response rating, Morningglory (morningglory; [7]): 15 | Plant response rating, Morningglory (morningglory; [8]): 15 | Morningglory plant response rating (morningglory; [9]): 10 | Morningglory plant response rating (morningglory; [10]): 70 | Plant response rating (0 = no effect, 100 = complete control), Corn (corn; 62 g ai/ha, preemergence): 0 | Plant response rating, Corn (corn; [11]): 0 | Plant response rating, Corn (corn; [12]): 5 | Corn plant response rating (corn; [13]): 30 | Plant response rating (0 = no effect, 100 = complete control), Surinam Grass (Surinam grass; 62 g ai/ha, preemergence): 0 | Plant response rating, Surinam Grass (Surinam grass; [11]): 5 | Plant response rating, Surinam Grass (Surinam grass; [12]): 45 | Surinam Grass plant response rating (Surinam grass; [13]): 60 | Plant response rating (0 = no effect, 100 = complete control), Pigweed (pigweed; 62 g ai/ha, preemergence): 100 | Plant response rating, Pigweed (pigweed; [11]): 100 | Plant response rating, Pigweed (pigweed; [12]): 100 | Pigweed plant response rating (pigweed; [13]): 100 | Ducksalad plant response rating (ducksalad; [3]): 0 | Ducksalad plant response rating (ducksalad; [4]): 50 | Ducksalad plant response rating (ducksalad; [5]): 70 | Plant response rating, Ducksalad (ducksalad; [6]): 85 | Plant response rating, Velvetleaf (velvetleaf [1]; [11]): 10 | Plant response rating, Velvetleaf (velvetleaf [1]; [12]): 30 | Velvetleaf plant response rating (velvetleaf [1]; [13]): 100 | Plant response rating (0 = no effect, 100 = complete control), Lambsquarters (lambsquarters; 62 g ai/ha, preemergence): 30 | Plant response rating, Lambsquarters (lambsquarters; [11]): 95 | Plant response rating, Lambsquarters (lambsquarters; [12]): 100 | Lambsquarters plant response rating (lambsquarters; [13]): 100 | Plant response rating (0 = no effect, 100 = complete control), Kochia (kochia; 62 g ai/ha, preemergence): 30 | Plant response rating, Kochia (kochia; [11]): 80 | Plant response rating, Kochia (kochia; [12]): 90 | Kochia plant response rating (kochia; [13]): 90 | Plant response rating, Velvetleaf (velvetleaf [2]; [8]): 55 | Velvetleaf plant response rating (velvetleaf [2]; [9]): 20 | Velvetleaf plant response rating (velvetleaf [2]; [14]): 70

C#CCNC(=O)c1cccc(NC(=O)c2cc(C(C)(C)C)nn2CC)n1 [Compound 147]
Rice plant response rating (rice; 16 g ai/ha, scale 0 to 100): 0 | Rice plant response rating (rice; 31 g ai/ha, scale 0 to 100): 0 | Rice plant response rating (rice; [3]): 0 | Rice plant response rating (rice; [15]): 0 | Foxtail, Giant plant response rating (giant foxtail; [7]): 45 | Plant response rating, Foxtail, Giant (giant foxtail; [8]): 90 | Foxtail, Giant plant response rating (giant foxtail; [9]): 60 | Foxtail, Giant plant response rating (giant foxtail; [14]): 95 | Morningglory plant response rating (morningglory; [7]): 20 | Plant response rating, Morningglory (morningglory; [8]): 30 | Morningglory plant response rating (morningglory; [9]): 20 | Morningglory plant response rating (morningglory; [14]): 45 | Plant response rating (0 = no effect, 100 = complete control), Corn (corn; 62 g ai/ha, preemergence): 0 | Plant response rating, Corn (corn; [11]): 0 | Plant response rating, Corn (corn; [12]): 0 | Corn plant response rating (corn; Postemergence, scale 0 to 100): 15 | Plant response rating, Corn (corn; [16]): 10 | Corn plant response rating (corn; [13]): 60 | Plant response rating, Corn (corn; [17]): 5 | Plant response rating, Corn (corn; [18]): 0 | Plant response rating (0 = no effect, 100 = complete control), Surinam Grass (Surinam grass; 62 g ai/ha, preemergence): 0 | Plant response rating, Surinam Grass (Surinam grass; [11]): 10 | Surinam Grass plant response rating (Surinam grass; Postemergence, scale 0 to 100): 60 | Plant response rating, Surinam Grass (Surinam grass; [16]): 30 | Surinam Grass plant response rating (Surinam grass; [13]): 60 | Plant response rating, Surinam Grass (Surinam grass; [17]): 0 | Plant response rating, Surinam Grass (Surinam grass; [18]): 0 | Plant response rating (0 = no effect, 100 = complete control), Pigweed (pigweed; 62 g ai/ha, preemergence): 20 | Plant response rating, Pigweed (pigweed; [11]): 90 | Pigweed plant response rating (pigweed; Postemergence, scale 0 to 100): 100 | Plant response rating, Pigweed (pigweed; [16]): 100 | Pigweed plant response rating (pigweed; [13]): 100 | Plant response rating, Pigweed (pigweed; [17]): 90 | Plant response rating, Pigweed (pigweed; [18]): 90 | Ducksalad plant response rating (ducksalad; 16 g ai/ha, scale 0 to 100): 0 | Ducksalad plant response rating (ducksalad; 31 g ai/ha, scale 0 to 100): 0 | Ducksalad plant response rating (ducksalad; [3]): 0 | Ducksalad plant response rating (ducksalad; [15]): 0 | Plant response rating, Velvetleaf (velvetleaf [1]; [11]): 20 | Velvetleaf plant response rating (velvetleaf [1]; Postemergence, scale 0 to 100): 40 | Velvetleaf plant response rating (velvetleaf [1]; [13]): 90 | Plant response rating, Velvetleaf (velvetleaf [1]; [17]): 30 | Plant response rating, Velvetleaf (velvetleaf [1]; [18]): 0 | Plant response rating (0 = no effect, 100 = complete control), Lambsquarters (lambsquarters; 62 g ai/ha, preemergence): 70 | Plant response rating, Lambsquarters (lambsquarters; [11]): 90 | Lambsquarters plant response rating (lambsquarters; Postemergence, scale 0 to 100): 100 | Plant response rating, Lambsquarters (lambsquarters; [16]): 100 | Lambsquarters plant response rating (lambsquarters; [13]): 100 | Plant response rating, Lambsquarters (lambsquarters; [17]): 100 | Plant response rating, Lambsquarters (lambsquarters; [18]): 90 | Plant response rating, Kochia (kochia; [11]): 40 | Kochia plant response rating (kochia; Postemergence, scale 0 to 100): 80 | Plant response rating, Kochia (kochia; [16]): 50 | Kochia plant response rating (kochia; [13]): 100 | Plant response rating, Kochia (kochia; [17]): 10 | Plant response rating, Kochia (kochia; [18]): 5 | Velvetleaf plant response rating (velvetleaf [2]; [7]): 30 | Plant response rating, Velvetleaf (velvetleaf [2]; [8]): 50 | Velvetleaf plant response rating (velvetleaf [2]; [14]): 85 | Velvetleaf plant response rating (velvetleaf [2]; preemergence, 500 g ai/ha, visual injury, 0 to 100 scale (0 no effect, 100 complete control)): 25
